# Results: US10314323B2, “Methods for improving the condition of hair in non-human animals” (Hill's Pet Nutrition, Inc., priority 2012, dated 2019)
# Entries after “also recorded” stand apart in the source; their conditions may differ.
# System: healthy adult cats
# Assay: Hair 18-MEA content after feeding amino acid supplemented diets to healthy cats
# Type: in vivo, cat
# Conditions: versus control base diet, regression model with base line as covariant; p<0.05 for isoleucine and threonine, p>0.05 for leucine
# Source text: The hair was clipped from the left middle flank areas of 24 healthy adult cats. The clipped regions measured approximately 20.32 cm by 10.16 cm (about 8 inches by about 4 inches). Hair was clipped as close to the skin as possible. The cats were then fed a base diet consisting of a commercially available nutritionally complete food for a period of 90 days. The nutrient content of the base food is set out in Table 1. On day 90, newly grown hair was clipped from the left middle flanks of the cats. The clipped regions measured approximately 19.05 cm by 8.89 cm (about 7.5 inches by about 3.5 inches). Samples of the clipped hair from each cat were retained and analysed for their 18-MEA content in order to determine the base line levels. The cats were divided into four groups of 6. The age, sex and nurturing status of the cats were balanced between the groups. The groups were randomly assigned a diet selected from the base diet, the base diet plus supplemental leucine, the base diet plus supplemental isoleucine, and the base diet plus supplemental threonine as shown in Table 2. The groups were fed the assigned diets for 90 days. On day 180, the newly grown hair was clipped from the left middle flanks of the cats. The clipped regions measured approximately 17.78 cm by 7.62 cm (about 7 inches by about 3 inches). Samples of clipped hair from each cat were retained and analysed for 18-MEA content. For the 18-MEA analysis, hair samples were first washed with circulating ethyl ether for 6 hours to remove the surface lipids and oils. The hair samples were cut into pieces about 5 mm in length or less, digested and extracted for 18-MEA that was measured with a gas chromatograph. The 18-MEA data were analysed using a regression model. Hair 18-MEA content was the dependent variable, and diet was used as the independent variable. The base line data were used as the covariant.
row,Compound,Effect on 18-MEA concentration of the hair
1,"CC(C)C[C@H](N)C(=O)O [Leucine, leucine, reference compound]",no significant effect
2,"CC[C@H](C)[C@H](N)C(=O)O [isoleucine, (2S, 3S)-2-amino-3-methylpentanoic acid]",increase; also recorded: significantly increased
3,"C[C@@H](O)[C@H](N)C(=O)O [threonine, (2S, 3R)-2-amino-3-hydroxybutanoic acid]",increase; also recorded: significantly increased
